Measured values from US11696937B2, “Glycopeptide compounds having activity of resisting drug-resistant bacteria, and preparation method and application thereof” (priority 2018, dated 2023).
Values after ≈ are worked out from the molar mass of the structure shown.

Assays:
[1] = test system: ATCC43300 (MRSA); assay: In vitro antibacterial activity (MIC) against MRSA; format: cell-based, Methicillin-resistant Staphylococcus aureus; details: for MIC ATCC43300 (MRSA): MRSA strain ATCC43300, method of Pharmacopoeia of the People's Republic of China (2015 edition)
Experimental: (§1) An antibacterial activity of the compounds in Table 1 is determined in vitro, and a minimum inhibitory concentration (MIC) is read. The determination method refers to the method of the Pharmacopoeia of the People's Republic of China (2015 edition). The MRSA detection strain is purchased from ATCC, and the VRE detection strain is from the clinically isolated drug-resistant strain 07-W3-45 from Shanghai Huashan Hospital. Known antibiotic oritavancin (phosphate) is used for a reference drug.

[2] = test system: Clinical isolates 07-W3-45 (VRE); assay: In vitro antibacterial activity (MIC) against VRE; format: cell-based, Vancomycin-resistant Enterococcus; details: for MIC Clinical isolates 07-W3-45 (VRE): clinically isolated drug-resistant strain 07-W3-45 from Shanghai Huashan Hospital
Experimental: as §1

[3] = test system: wild AB zebrafish; assay: Zebrafish toxicity test; format: in vivo; details: intravenous injection, 72 hours of treatment, samples in phosphate form
Experimental: A zebrafish toxicity test of the compounds in Table 1 is also tested. Randomly select wild AB zebrafish in a six-well plate, and inject each test sample at a dose of 50, 100, 150, 200, and 250 ng/tail intravenously. At the same time, a normal control group and a solvent control group (aqueous phosphoric acid) are set; During this experiment, the death of zebrafish is observed and recorded every day and the dead fish are removed. After 72 hours of treatment, the death of zebrafish is counted. Calculate the LD50 of each test product to zebrafish.
All samples are tested for zebrafish toxicity in phosphate form.

| Structure (SMILES) | MIC ATCC43300 (MRSA) [1] [µg/mL] | MIC Clinical isolates 07-W3-45 (VRE) [2] [µg/mL] | Zebrafish LD50 [3] [ng/tail] | MIC ([1]; Staphylococcus aureus, read-out: MIC ATCC43300 (MRSA)) [µg/mL] | MIC ([2]; Enterococcus, VRE, read-out: MIC Clinical isolates 07-W3-45 (VRE)) [µg/mL] |
| --- | --- | --- | --- | --- | --- |
| CNC(CC(C)C)C(=O)NC1C(=O)NC(CC(N)=O)C(=O)NC2C(=O)NC3C(=O)NC(C(=O)NC(C(=O)O)c4cc(O)cc(O)c4-c4cc3ccc4O)C(OC3CC(C)(N)C(O)C(C)O3)c3ccc(c(Cl)c3)Oc3cc2cc(c3OC2OC(CO)C(O)C(O)C2OC2CC(C)(NCc3ccc(NCCc4ccccc4)cc3)C(O)C(C)O2)Oc2ccc(cc2Cl)C1O (stereo not drawn) [Compound 20] | 0.5 (≈ 0.278 µM) | 2 (≈ 1.11 µM) | 189 | – | – |
| CNC(CC(C)C)C(=O)NC1C(=O)NC(CC(N)=O)C(=O)NC2C(=O)NC3C(=O)NC(C(=O)NC(C(=O)O)c4cc(O)cc(O)c4-c4cc3ccc4O)C(OC3CC(C)(N)C(O)C(C)O3)c3ccc(c(Cl)c3)Oc3cc2cc(c3OC2OC(CO)C(O)C(O)C2OC2CC(C)(NCc3ccc(NCCc4ccc(Cl)cc4)cc3)C(O)C(C)O2)Oc2ccc(cc2Cl)C1O (stereo not drawn) [Compound 21] | 0.016 (≈ 0.00871 µM) | 0.5 (≈ 0.272 µM) | 102 | – | – |
| CNC(CC(C)C)C(=O)NC1C(=O)NC(CC(N)=O)C(=O)NC2C(=O)NC3C(=O)NC(C(=O)NC(C(=O)O)c4cc(O)cc(O)c4-c4cc3ccc4O)C(OC3CC(C)(N)C(O)C(C)O3)c3ccc(c(Cl)c3)Oc3cc2cc(c3OC2OC(CO)C(O)C(O)C2OC2CC(C)(NCc3ccc(NCCc4ccc(C(F)(F)F)cc4)cc3)C(O)C(C)O2)Oc2ccc(cc2Cl)C1O (stereo not drawn) [Compound 22] | 0.032 (≈ 0.0171 µM) | 0.25 (≈ 0.134 µM) | 142 | – | – |
| CNC(CC(C)C)C(=O)NC1C(=O)NC(CC(N)=O)C(=O)NC2C(=O)NC3C(=O)NC(C(=O)NC(C(=O)O)c4cc(O)cc(O)c4-c4cc3ccc4O)C(OC3CC(C)(N)C(O)C(C)O3)c3ccc(c(Cl)c3)Oc3cc2cc(c3OC2OC(CO)C(O)C(O)C2OC2CC(C)(NCc3ccc(NCCc4ccc(OC)cc4)cc3)C(O)C(C)O2)Oc2ccc(cc2Cl)C1O (stereo not drawn) [Compound 23] | 0.5 (≈ 0.273 µM) | 1 (≈ 0.546 µM) | 192 | – | – |
| CNC(CC(C)C)C(=O)NC1C(=O)NC(CC(N)=O)C(=O)NC2C(=O)NC3C(=O)NC(C(=O)NC(C(=O)O)c4cc(O)cc(O)c4-c4cc3ccc4O)C(OC3CC(C)(N)C(O)C(C)O3)c3ccc(c(Cl)c3)Oc3cc2cc(c3OC2OC(CO)C(O)C(O)C2OC2CC(C)(NCc3ccc(NCCCc4ccccc4)cc3)C(O)C(C)O2)Oc2ccc(cc2Cl)C1O (stereo not drawn) [Compound 24] | 0.5 (≈ 0.275 µM) | 1 (≈ 0.551 µM) | 153 | – | – |
| CNC(CC(C)C)C(=O)NC1C(=O)NC(CC(N)=O)C(=O)NC2C(=O)NC3C(=O)NC(C(=O)NC(C(=O)O)c4cc(O)cc(O)c4-c4cc3ccc4O)C(OC3CC(C)(N)C(O)C(C)O3)c3ccc(c(Cl)c3)Oc3cc2cc(c3OC2OC(CO)C(O)C(O)C2OC2CC(C)(NCc3ccc(NCCCc4ccc(Cl)cc4)cc3)C(O)C(C)O2)Oc2ccc(cc2Cl)C1O (stereo not drawn) [Compound 25] | 0.064 (≈ 0.0346 µM) | 0.25 (≈ 0.135 µM) | 97 | – | – |
| CN[C@H](CC(C)C)C(=O)N[C@H]1C(=O)N[C@@H](CC(N)=O)C(=O)N[C@H]2C(=O)N[C@H]3C(=O)N[C@H](C(=O)N[C@H](C(=O)O)c4cc(O)cc(O)c4-c4cc3ccc4O)[C@H](O[C@H]3C[C@](C)(N)[C@@H](O)[C@H](C)O3)c3ccc(c(Cl)c3)Oc3cc2cc(c3O[C@@H]2O[C@H](CO)[C@@H](O)[C@H](O)[C@H]2O[C@H]2C[C@](C)(NCc3ccc(-c4ccc(Cl)cc4)cc3)[C@@H](O)[C@H](C)O2)Oc2ccc(cc2Cl)[C@H]1O [Orivancin, oritavancin, reference compound] | – | – | 89.4 | 0.5 (≈ 0.279 µM) | 2 (≈ 1.12 µM) |
